Measured values reported in US5552156A, “Liposomal and micellular stabilization of camptothecin drugs” (Ohio State University, priority 1995, dated 1996).
“Also recorded” adds a separate entry of the source.

Legend:
[1] = Steady-state fluorescence anisotropy in solvents and liposomes; format: physicochemical; settings: for steady-state anisotropy (a), DMPC: DMPC liposomes, 1/a vs. 1/[lipid] plot; for steady-state anisotropy (a), DMPC / steady-state anisotropy (a), DMPG / steady-state anisotropy (a), PBS / steady-state anisotropy (a), glycerol / steady-state anisotropy (a), octanol / steady-state anisotropy (a), DSPC: 37° C.; for steady-state anisotropy (a), DMPG: DMPG liposomes; for steady-state anisotropy (a), PBS / steady-state anisotropy (a), glycerol / steady-state anisotropy (a), octanol: 1 μM drug; for limiting fluorescence anisotropy a0: extrapolated to -25° C.; for limiting fluorescence anisotropy a0 / steady-state anisotropy (a), glycerol: glycerol; for steady-state anisotropy (a), DSPC: DSPC liposomes
Method: Steady-state fluorescence measurements were obtained on a SLM Model 4800C. spectrofluorometer with a thermostated cuvette compartment. This instrument was interfaced with an IBM PS/2 model 55 SX computer. Excitation and emission spectra were recorded with an excitation resolution of 8 nm and an emission resolution of 4 nm. In all cases spectra were corrected for background fluorescence and scatter from unlabeled lipids or from solvents by subtraction of the spectrum of a blank. Steady-state fluorescence intensity measurements were made in the absence of polarizer. Steady-state anisotropy (a) measurements were determined with the instrument in the "T-format" for simultaneous measurement of two polarized intensities. The alignment of polarizers were checked routinely using a dilute suspension of 0.25 μm polystyrene microspheres from Polysciences, Inc, Warrington, Pa., in water; anisotropy values of >0.99 were obtained. The anisotropy was calculated from a=(Ivv -GlVH)/(Ivv +GIVH), where G-IVH /IHH and the subscripts refer to vertical and horizontal orientations of the excitation and emission polarizers, respectively.
Anisotropy measurements for camptothecin, camptothecin carboxylate sodium salt, and 10,11-methylenedioxycamptothecin were conducted using exciting light of 370 nm and 420 nm long wave pass filters on each emission channel in order to isolate the fluorescence signal from background scatter and signal. For topotecan a 400 nm excitation wavelength and a 500 nm emission filter were used and for 9-aminocamptothecin a 375 nm excitation and a wavelength 420 nm emission filter were used. For AMC and CMC, a 370 nm excitation wavelength and a 400 nm emission filter were used. For 10-hydroxycamptothecin 375 nm excitation wavelength 500 nm emission filter was used. Emission filters were obtained from Oriel Corp. Stamford, Conn. The combination of exciting light and emission filters allows one to adequately separate the fluorescence from the background signal. The contribution of background fluorescence, together with scattered light, was typically less than 1% of the total intensity. Since the lactone ring of the camptothecin drug undergoes hydrolysis in aqueous medium, all measurements were completed within the shortest possible time, less than 1 minute after mixing the drug stock solution with PBS or the liposomes. In each case, analysis was initiated immediately after mixing the drug stock solution with PBS or with the liposomes. All measurements were performed at 37° C. unless otherwise noted.
While the spectral changes provide qualitative evidence that the camptothecin drugs bind the liposome membranes, fluorescence anisotropy titration, offers the most sensitive means for quantitatively assessing the extent of the binding. The fluorescence anisotropy titration was performed according to the method of Burke and Tritton, Biochemistry 24: 1768-1776 (1985).
A steady-state fluorescence anisotropy (a) measurement is related to the rotational rate of the fluorescent molecule through the Perrin Equation: […]
where a0 is the limiting fluorescence anisotropy value, that is, the anisotropy value in the absence of depolarizing rotations, T is the excited-state lifetime, and .phi. is the rotational correlative time of the fluorophore. According to Equation 1, changes in either the T or .phi. values of a fluorescent compound can modulate its steady-state anisotropy.
The limiting fluorescence anisotropy (a0) values were also measured. The maximum values of (a) were obtained by dissolving the camptothecin drugs in the viscous solvent glycerol and cooling the samples to low temperatures. Steady-stated anisotropy (a) values were determined for samples containing 1 μM drug at 37° C.
Where the solvent viscosity is high and temperature is low, depolarizing rotations are at a minimum. By extrapolating these (a) values to -25° C., the limiting anisotropy values (a0) for the camptothecin drugs, were determined. […]

[2] = HPLC assay of lactone ring hydrolysis, free in PBS or associated with liposomes or micelles; format: physicochemical; settings: for duration of stability when bound to liposomes / lactone hydrolysis when associated with liposomes: DMPC and DMPG liposomes; for duration of stability when bound to liposomes: 0.29M lipid; for C/L drug DMPC Lip. / t1/2 drug DMPC Lip.: DMPC liposomes; for C/L drug DMPG Lip. / t1/2 drug DMPG Lip.: DMPG liposomes; for effect of liposome lysis by sonication: 5 minutes sonication; for biologically active (lactone) form present after 48 hours: associated with DMPC or DMPG liposomes; for carboxylate/lactone ratio (C/L) free drug: final equilibrium; for t1/2 free drug: lactone hydrolysis
Method: A high performance liquid chromatography assay was used to determine the rate of hydrolysis of camptothecin and topotecan free in aqueous solution and to compare such rates with the rate of hydrolysis for the same drugs when bound to the DMPG and DMPC liposome membranes. The assay was conducted under near physiological conditions; the pH was 7.4, the temperature was 37° C. and the ionic strength was physiological. A Spectroflow model 980 fluorescence detector coupled to an HP 3392A integrator which acquired and processed the chromatograms, was used. For camptothecin, an Ultrasphere ODS C-18 250 mm long column was used. The mobile phase consisted of 32% acetonitrile, 67% 0.1M acetate buffer, pH 5.5, and 1% 01.M sodium dodecylsulfate at a flow rate of 1 mL/min. The detector was set to 370 nm excitation wavelength and a 418 nm long pass emission filter. A 1 μM solution of camptothecin in PBS was prepared and incubated at 37° C. Immediately after mixing the drug stock solution with PBS and at intervals of 5 min thereafter, 50 μL aliquots were taken out and mixed with 150 μL methanolic internal standard, 9-toluoylamidocamptothecin and either analyzed immediately or kept cold under dry ice. 150 μL of this mixture was diluted with 125 μL water and 200 μL was injected. The ratio of the peak areas corresponding to the intact lactone form of the camptothecin drug and the internal standard at a particular time was normalized to that at the time of mixing and was considered as the concentration of the intact lactone form.
For topotecan the excitation wavelength was 362 nm and the emission was observed through a 470 long wave pass filter. The stationary phase was Waters Nova-Pak C-18 150mm long column. The mobile phase consisted of 500 mL 0.1M KH2 PO4, 550 mL acetonitrile, 4.2 mL triethylamine (distilled over molecular sieves), 4.44 g sodium dioctylsulfosuccinate (DOSS), and 970 ml water. The pH was adjusted to 6.0 with H3 PO4. Internal standard solution contained 50×10^-9 g acridine from Eastman and 20×10^-3 M DOSS in methanol and was always kept cold at ≤-20° C. Next 150 μL or cold internal standard solution was mixed with 50 μL aliquot containing topotecan, centrifuged for 1 minute and the supernatant was either analyzed immediately or stored at -20° C. for analysis at a later time, within 2 hours. Samples were monitored at time points from 0 minutes, that is, immediately following dissolution, up to 72 hours.
The kinetics of lactone ring hydrolysis for free camptothecin, CMC and topotecan are shown in of FIGS. 7a, 7b and 7c. Analysis of the decay profile for camptothecin, CMC and topotecan free in PBS was accomplished using a nonlinear least squares program.

Compound | steady-state anisotropy (a), DMPC [1] | steady-state anisotropy (a), DMPG [1] | steady-state anisotropy (a), PBS [1] | limiting fluorescence anisotropy a0 [1] | steady-state anisotropy (a), glycerol [1] | steady-state anisotropy (a), octanol [1] | duration of stability when bound to liposomes [2] | C/L drug DMPC Lip. ([2]; pH 7.4, 37° C.) | t1/2 drug DMPC Lip. ([2]; pH 7.4, 37° C.) [h] | C/L drug DMPG Lip. ([2]; pH 7.4, 37° C.) | t1/2 drug DMPG Lip. ([2]; pH 7.4, 37° C.) [h] | biologically active (lactone) form present after 48 hours [2] | carboxylate/lactone ratio (C/L) free drug ([2]; free in PBS, pH 7.4, 37° C.) | half-life (t1/2) of free drug in PBS ([2]; free in PBS, pH 7.4, 37° C.) | t1/2 free drug ([2]; free in PBS, pH 7.4, 37° C.) [min] | lactone hydrolysis when associated with liposomes [2] | steady-state anisotropy (a), DSPC [1] | other results
CCC1(O)C(=O)OCc2c1cc1n(c2=O)Cc2cc3c(Cl)c4c(cc3nc2-1)OCO4 (stereo not shown) [9-chloro-10,11-methylenedioxycamptothecin] | 0.202 | 0.207 | 0.025 | 0.367 | 0.363 | 0.098 | at least 48 hours | ~ 0 | > 72 | ~ 0 | > 72 | more than 97% | 6.4 | approximately 21 min | 21.3 | – | – | effect of liposome lysis by sonication ([2]; DSPC MLVs): releases 9-chloro-10,11-methylenedioxycamptothecin which is then hydrolysed; effect of liposome lysis by sonication ([2]; DSPC MLVs, listed as CMC): at least partially released and hydrolysed; lactone ring not hydrolysed in pH 5 DSPC liposomes ([2]; DSPC MLVs, internal pH 5): More than 80%
CCC1(O)C(=O)OCc2c1cc1n(c2=O)Cc2cc3cc4c(cc3nc2-1)OCO4 (stereo not shown) [10,11-methylenedioxycamptothecin] | 0.168 | 0.206 | 0.021 | 0.374 | 0.357 | 0.089 | – | ~ 0 | > 72 | ~ 0 | > 72 | more than 97% | 3.3 | 28.7 min | 28.7 | little hydrolysis even at 48 hours | – | degraded at 1 h ([2]; pH 7.4, free in PBS, less than 1 hour, read-out: drug hydrolyzed in less than 1 hour): > 70%; drug stabilized at 5 hours ([2]; sorbitan mono-oleate micelles, 5 hours): 50%
CCC1(O)C(=O)OCc2c1cc1n(c2=O)Cc2cc3cc(O)ccc3nc2-1 (stereo not shown) [10-hydroxycamptothecin] | 0.191 | 0.201 | 0.021 | 0.372 | 0.331 | 0.127 | – | – | – | – | – | – | 5.4 | – | 23.9 | – | – | –
CC[C@@]1(O)C(=O)OCc2c1cc1n(c2=O)Cc2cc3ccccc3nc2-1 [camptothecin] | 0.127 | 0.122 | 0.007 | 0.383 | 0.334 | 0.051 | at least 48 hours | ~ 0 | > 72 | ~ 0 | > 72 | more than 97% | 6.8 | 16.6 min | 16.6 | – | 0.087 | enhancement in steady-state anisotropy (a) value ([1]; bound to DMPG liposomes): 17 -fold; lactone ring hydrolysis at raised drug concentration ([2]; 2 mM, lipid to drug ratio 150, DMPC): no evidence of lactone ring hydrolysis was observed; C/L drug DSPC Lip. ([2]; DSPC liposomes, pH 7.4, 37° C.): ~ 3.4
CC[C@@]1(O)C(=O)OCc2c1cc1n(c2=O)Cc2cc3c(CN(C)C)c(O)ccc3nc2-1 [topotecan] | 0.125 | 0.170 | 0.008 | 0.367 | 0.320 | 0.071 | – | 3.4 | 1.25 | 0.42 | 1.6 | – | 7.5 | – | 21.1 | some hydrolysis at 1 hour; also recorded: stabilized to a greater degree in DMPG liposomes as compared to DMPC liposomes | 0.059 | –
